Experimental findings from patent US10508111B2, “6-[5-amino-6-(2-ethoxyethoxy)-imidazo[4,5-B]pyridin-3-yl]-nicotinonitrile derivatives and their use as IRAK inhibitors” (GALAPAGOS NV, priority 2015, dated 2019) are described below.

Bounds are passed on as bounds.

Common to all, as to type: biochemical
One test concerns the target T1, human IRAK-4 (Homo sapiens, UniProt Q9NWZ3).
T1 construct: purchased Carna Biosciences 09-145
T1 sequence (Q9NWZ3 1-460): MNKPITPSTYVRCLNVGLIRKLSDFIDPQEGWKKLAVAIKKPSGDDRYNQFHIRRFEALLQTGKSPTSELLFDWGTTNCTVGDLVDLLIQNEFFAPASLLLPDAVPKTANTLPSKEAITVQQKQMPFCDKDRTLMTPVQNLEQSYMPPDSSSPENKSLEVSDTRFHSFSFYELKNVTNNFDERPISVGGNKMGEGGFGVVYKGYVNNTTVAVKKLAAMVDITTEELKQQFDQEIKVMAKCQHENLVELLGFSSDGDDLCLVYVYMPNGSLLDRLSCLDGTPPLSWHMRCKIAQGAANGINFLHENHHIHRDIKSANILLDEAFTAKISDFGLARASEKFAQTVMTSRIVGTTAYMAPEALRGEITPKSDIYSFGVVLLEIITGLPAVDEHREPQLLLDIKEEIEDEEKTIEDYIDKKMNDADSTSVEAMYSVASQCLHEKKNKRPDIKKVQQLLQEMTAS
The test can be described thus: IC50 determination for human IRAK-4, radioactive filter plate assay. Particulars: RIP140 substrate, 1 μM ATP + [γ-33P]ATP, 30° C., 45 min; read-out: hIRAK-4 IC50. The method, then: The IC50 value for IRAK-4 is determined in a radioactive filter plate assay. The principle of the assay consists in the measurement of incorporated ^33P into the RIP140 substrate upon phosphorylation by the enzyme IRAK-4 using [γ-^33P]ATP and ATP. Unincorporated ^33P is removed by loading the samples on a filter plate (using a harvester, PerkinElmer) and 6 subsequent washing steps. Incorporated ^33P in RIP140 is measured by a scintillation counter (Topcount, PerkinElmer) after addition of MicroScint™-20 (PerkinElmer, 6013621) to the filter plates.
5 μL of a water dilution series of test compound (starting from 20 μM or 6.6 μM highest concentration), from a 100% DMSO stock solution, 1/5 dilution, is added to the wells (final DMSO concentration of 1% in reaction assay). IRAK-4 (Carna Biosciences, 09-145) and RIP140 (SEQ ID1, cf. Table VII) are used at a final concentration of 10 ng/mL and 4 μM, respectively. The enzyme and substrate are diluted in 25 mM Tris pH 7.5, 0.025% Triton X-100, 5 mM MnCl2, and 2 mM DTT to a total volume of 11 μL. The reaction is started by addition of 9 μL of 1 μM ATP (Sigma, A6419-5G)+0.25 μCi [γ-^33P]ATP (PerkinElmer, NEG602K001MC), diluted in the same buffer as enzyme and substrate. The mixture is incubated at 30° C. for 45 min. The reaction is terminated by adding 25 μL of 150 mM phosphoric acid (VWR, 1.00573.1000). Samples are transferred to filter plates and incorporated radioactivity is measured using a scintillation counter.
(§1) 10 μM staurosporine (1% DMSO) is used as positive control (100% inhibition); vehicle (water+1% DMSO) as negative control (0% inhibition).

The target of the next test is T2, ABL (Homo sapiens, UniProt P00519).
T2 construct: purchased Life Technologies P3049
T2 sequence (P00519 whole entry): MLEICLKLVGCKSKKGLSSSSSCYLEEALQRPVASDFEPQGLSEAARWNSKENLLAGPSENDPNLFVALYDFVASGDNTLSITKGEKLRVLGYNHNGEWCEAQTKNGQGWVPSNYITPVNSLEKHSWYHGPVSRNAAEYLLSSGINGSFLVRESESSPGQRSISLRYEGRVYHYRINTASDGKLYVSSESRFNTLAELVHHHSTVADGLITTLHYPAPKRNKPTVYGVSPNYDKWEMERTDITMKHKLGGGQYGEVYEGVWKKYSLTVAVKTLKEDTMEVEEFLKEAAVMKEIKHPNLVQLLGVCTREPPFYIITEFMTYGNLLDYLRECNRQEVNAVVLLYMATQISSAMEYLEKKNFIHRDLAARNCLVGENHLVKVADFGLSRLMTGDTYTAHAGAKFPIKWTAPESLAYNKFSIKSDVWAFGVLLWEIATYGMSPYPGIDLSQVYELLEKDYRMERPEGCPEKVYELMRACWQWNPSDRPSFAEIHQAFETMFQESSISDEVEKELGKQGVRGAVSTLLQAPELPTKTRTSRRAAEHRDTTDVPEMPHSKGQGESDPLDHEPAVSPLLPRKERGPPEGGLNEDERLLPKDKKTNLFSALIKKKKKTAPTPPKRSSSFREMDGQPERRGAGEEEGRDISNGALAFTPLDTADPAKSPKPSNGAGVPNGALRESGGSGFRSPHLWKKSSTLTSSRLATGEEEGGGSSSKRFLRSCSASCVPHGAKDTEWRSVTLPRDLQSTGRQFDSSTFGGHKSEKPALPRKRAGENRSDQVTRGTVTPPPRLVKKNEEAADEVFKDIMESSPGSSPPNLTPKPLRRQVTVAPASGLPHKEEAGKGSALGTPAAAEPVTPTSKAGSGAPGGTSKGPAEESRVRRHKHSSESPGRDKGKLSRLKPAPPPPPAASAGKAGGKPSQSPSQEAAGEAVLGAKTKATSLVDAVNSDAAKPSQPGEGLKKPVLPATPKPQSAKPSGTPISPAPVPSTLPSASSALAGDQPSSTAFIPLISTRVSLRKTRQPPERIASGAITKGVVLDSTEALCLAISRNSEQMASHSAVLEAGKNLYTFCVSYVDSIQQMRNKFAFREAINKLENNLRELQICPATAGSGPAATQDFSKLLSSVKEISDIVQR
The test can be described thus: Kinase selectivity profiling (focused panel), radioactive filter plate assay: ABL. As to conditions: PolyGT substrate, 0.5 μM ATP, 60 min. The procedure: (§2) The purpose of this assay is to determine the activity and selectivity of a compound of the invention on a selected range of human kinases which may result in undesirable side-effects when inhibited (Dy & Adjei 2013; Force & Kolaja 2011).
(§3) The IC50 value for off-target kinases is determined in radioactive filter plate assays. The principle of the assays consists in the measurement of incorporated ^33P into a peptide substrate upon phosphorylation by the kinase enzyme using [γ-^33P]ATP and ATP. Unincorporated ^33P is removed by loading the samples on a filter plate (using a harvester, PerkinElmer) and 6 subsequent washing steps. Incorporated ^33P in the peptide substrate is measured by a scintillation counter (Topcount, PerkinElmer) after addition of MicroScint™-20 (PerkinElmer, 6013621) to the filter plates.
5 μL of a water dilution series of test compound (starting from 20 μM or 6.6 μM highest concentration), from a 100% DMSO stock solution, 1/5 dilution, is added to the wells (final DMSO concentration of 1% in reaction assay). Enzyme and peptide substrate are used at optimized concentrations (cf. Table VI). The enzyme and substrate are diluted in assay buffer to a total volume of 11 μL. The reaction is started by addition of 9 μL of ATP+[γ-^33P]ATP, diluted in the same buffer as enzyme and substrate. The mixture is incubated at 30° C. The reaction is terminated by adding 25 μL of 150 mM phosphoric acid. Samples are transferred to filter plates and incorporated radioactivity is measured using a scintillation counter.
The incubation time, assay buffer composition, and concentrations of ATP, enzyme and substrate are reported in Table VI for example kinase off-target assays.
as §1

The next test has as its target T3, Aurora B (Homo sapiens, UniProt Q96GD4).
T3 construct: purchased Carna BioSciences 05-102
The test can be described thus: Kinase selectivity profiling (focused panel), radioactive filter plate assay: Aurora B. As to conditions: Histone H3 peptide, 1.3 μM ATP, 90 min. The method, then: as §2, §3
5 μL of a water dilution series of test compound (starting from 20 μM or 6.6 μM highest concentration), from a 100% DMSO stock solution, 1/5 dilution, is added to the wells (final DMSO concentration of 1% in reaction assay). Enzyme and peptide substrate are used at optimized concentrations (cf. Table VI). The enzyme and substrate are diluted in assay buffer to a total volume of 11 μL. […] Samples are transferred to filter plates and incorporated radioactivity is measured using a scintillation counter. […]

Broadly, the IC50 is the concentration needed to halve the response being measured.

T3 sequence (Q96GD4 whole entry): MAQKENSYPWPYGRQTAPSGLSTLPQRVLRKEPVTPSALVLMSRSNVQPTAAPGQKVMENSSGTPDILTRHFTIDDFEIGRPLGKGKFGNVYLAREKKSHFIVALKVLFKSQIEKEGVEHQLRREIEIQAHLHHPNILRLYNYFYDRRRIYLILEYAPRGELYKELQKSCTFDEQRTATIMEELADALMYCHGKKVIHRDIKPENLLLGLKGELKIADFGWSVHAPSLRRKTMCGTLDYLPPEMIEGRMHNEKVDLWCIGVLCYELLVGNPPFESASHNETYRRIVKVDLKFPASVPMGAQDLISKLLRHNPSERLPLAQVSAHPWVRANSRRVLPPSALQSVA
T3 sequence (Q9NQS7 803-918 partner limits assumed): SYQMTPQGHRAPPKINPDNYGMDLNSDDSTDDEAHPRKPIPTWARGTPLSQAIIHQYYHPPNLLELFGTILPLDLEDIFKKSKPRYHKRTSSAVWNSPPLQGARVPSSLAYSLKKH

In the case of `N#Cc1ccc(-n2cnc3cc(OCCOCCO)c(NC4CCOCC4)nc32)nc1` [Compound 1, 6-[6-[2-(2-hydroxy-ethoxy)-ethoxy]-5-(tetrahydro-pyran-4-ylamino)-imidazo[4,5-b]pyridin-3-yl]-nicotinonitrile], the IC50 on human IRAK-4 was 6.35 nM.
In the case of `C[C@]1(O)CC[C@@H](Nc2nc3c(cc2OCCOCCO)ncn3-c2ccc(C#N)cn2)CC1` [Compound 12, 6-[6-[2-(2-hydroxyethoxy)ethoxy]-5-[((cis-1,4)-4-hydroxy-4-methylcyclohexyl)amino]imidazo[4,5-b]pyridin-3-yl]pyridine-3-carbonitrile], the IC50 at human IRAK-4 was 0.95 nM; at ABL, 138 nM; at Aurora B it was > 1880 nM.
